Data set [1] concerns MelanoDerm™ Skin Model. The experiment in a line: MelanoDerm Study 1, MTT tissue viability (Example 19). In kind it is cell-based, human. Particulars: 200 μM compared to 50 μM. The source says: Treatments were as follows: 7-days of treatment in alternate days (7TD); 7-days of treatment in alternate days followed by 7-days without treatment (recovery) (7TD+7NTD); and 14-days of treatment in alternate days (14TD). The study also evaluated the potential dermal irritation induced by each test article as measured by the conversion of MTT by MelanoDerm™ tissues after repeated exposures to the test articles, over the treatment periods specified in the protocol.
(Berridge et al., 1996). The toxicity of the test articles to the tissue, which is evidence for potential dermal irritation, was determined by measuring the relative survival—the MTT conversion relative to the negative control-treated tissues.
The test articles, CV-8686 and AB11644, were provided as stock solutions (˜100 mM each) in DMSO. The test articles were administered to the test system as a 50 μM and 200 μM dilution in sterile, EPI-100-LLMM. Test article DMSO (vehicle control) was administered to the test system as a 0.2% dilution in sterile, EPI-100-LLMM.
The test articles were each prepared using the procedure as follows: starting from the stock concentrations provided, 2 μl of each test article were first diluted with the appropriate volume of EPI-100-LLMM to a final concentration of 200 μM. […]

Data set [2] deals with T1, arylhydrocarbon receptor (AhR) (Homo sapiens, UniProt P35869).
T1 sequence (P35869 11-848): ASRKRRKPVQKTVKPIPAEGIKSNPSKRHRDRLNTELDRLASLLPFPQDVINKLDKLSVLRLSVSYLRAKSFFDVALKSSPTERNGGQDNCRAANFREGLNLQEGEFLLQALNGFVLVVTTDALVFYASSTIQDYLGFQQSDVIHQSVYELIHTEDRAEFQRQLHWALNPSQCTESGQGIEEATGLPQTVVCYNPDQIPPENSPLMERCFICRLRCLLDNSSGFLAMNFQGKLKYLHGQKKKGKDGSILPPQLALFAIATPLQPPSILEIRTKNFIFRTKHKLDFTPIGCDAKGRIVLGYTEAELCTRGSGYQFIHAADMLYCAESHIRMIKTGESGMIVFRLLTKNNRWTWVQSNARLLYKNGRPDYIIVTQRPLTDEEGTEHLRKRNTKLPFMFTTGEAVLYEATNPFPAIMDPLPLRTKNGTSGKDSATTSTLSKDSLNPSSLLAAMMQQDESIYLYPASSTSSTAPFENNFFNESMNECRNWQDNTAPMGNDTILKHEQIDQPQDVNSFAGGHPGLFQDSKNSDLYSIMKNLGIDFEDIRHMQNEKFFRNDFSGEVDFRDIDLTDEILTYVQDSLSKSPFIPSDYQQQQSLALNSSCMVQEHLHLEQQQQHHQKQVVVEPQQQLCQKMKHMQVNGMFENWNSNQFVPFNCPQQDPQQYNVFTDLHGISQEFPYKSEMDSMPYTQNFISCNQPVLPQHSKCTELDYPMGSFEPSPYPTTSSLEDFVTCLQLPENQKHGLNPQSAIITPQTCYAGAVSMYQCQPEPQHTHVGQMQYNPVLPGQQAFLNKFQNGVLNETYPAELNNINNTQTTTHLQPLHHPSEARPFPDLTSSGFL
Nature of the data set: HepG2-AhR-Luciferase assay. As to conditions: EC50 (uM), 24 hours of treatment.
Method: HepG2-AhR-Luc cells were purchased from Pharmaron, One-Glo Luciferase assay system was purchased from Promega. DMEM was purchased from Hyclone, and penicillin/streptomycin was purchased from Solabio.
Culture media for stably transfected HepG2 cells was prepared by supplementing DMEM with high glucose and L-glutamine, as well as 10% FBS.
HepG2-AhR-Luc cells were cultured in T-75 flasks at 37° C., 5% CO2, and 95% relative humidity. Cells were allowed to reach 80-90% confluence before detachment and splitting.
Cultivated cells were rinsed with 5 mL PBS. PBS was aspirated away, 1.5 mL trypsin was added to the flask, and cells were incubated at 37° C. for approximately 5 minutes or until the cells detached and floated. Trypsin was inactivated by adding excess serum-containing media.
The cell suspension was transferred to a conical tube and centrifuged at 120 g for 10 minutes to pellet the cells. Cells were resuspended in seeding media at a proper density. 40 μL of cells were transferred to a 384-well culture plate (5×10^3 cells/well). Plates were placed in the incubator at 37° C. for 24 hours.
Afterward, stock solutions of test compounds and omeprazole positive control were prepared. Compound solutions were transferred into the assay plate using Echo550. The plate was then placed back into the incubator for compound treatment.
Later, after 24 hours of treatment, the plate was removed from the incubator and allowed to cool at ambient temperature. 30 μL One-Glo reagent equal to that of the culture medium was added in each well. Cells were allowed to lyse for at least 3 minutes, and then measured in a luminometer.
Dose responses were graphed using the non-linear regression analysis in XLfit and EC50 values were also calculated.

Data set [3] relates to MelanoDerm™ Skin Model. The experiment in a line: MelanoDerm Study 2, melanin assay (Example 19). As to conditions: 500 μM, 7-day period. In kind it is cell-based, human. The procedure:
The study also evaluated the potential dermal irritation induced by each test article as measured by the conversion of MTT by MelanoDerm™ tissues after repeated exposures to the test articles, over the 7 day treatment period.
The test articles, Malassezin (CV-8684), Compound B (CV-8877), Compound E (AB12508), Compound H (AB12509), an unknown composition, Compound A5 (CV-8819), and 052 (AB12976), were prepared by diluting the stock concentrations with EPI-100-LLMM to final concentrations of 200 μM and 500 μM. The test article, Compound I (CV-8686), was prepared by diluting the stock concentration to 500 μM. All of the dilutions were vortexed for at least 1 minute, and then heated in a water bath at 37°±1° C. for 15 minutes. The dilutions were then vortexed again for at least 1 minute prior to being dosed on the tissues. The test article and solvent control, DMSO, was prepared as a 0.5% (v/v) dilution in EPI-100-LLMM. The test article dilution was vortexed for at least 1 minute and then again for at least 1 minute prior to being applied onto the tissues. […]
The raw absorbance data were captured. The OD490 value of each melanin standard was determined. […] The corrected OD490 value of each melanin standard concentration was determined by subtracting the OD490 value of the blank well from the OD490 value of the melanin standard concentration. […]

Data set [4] in a line: CellTiter-Glo cell viability assay (Example 9). In kind it is cell-based. Particulars: human; after 24-hour treatment; read-out: inhibition of cell viability. The protocol: (§1) CellTiter-Glo® 2.0 assay was purchased from Promega. Cell seeding, preparation of the compound source plate, and exposure of cells to test compounds were performed as described in Example 8.
(§2) CellTiter-Glo® reagents were thawed and equilibrated to room temperature before the experiment. 40 μL of CellTiter-Glo® reagent was then added to each well for detection (at 1:1 ratio to culture medium). The plates were then incubated at room temperature for 30 minutes and read using EnSpire (PerkinElmer) plate reader. The remaining activity was calculated according to the following formula: Remaining Activity (%)=100%×(Lumsample−Lumbkg)/(Lumvehicle−Lumbkg).
For orientation: In ATP-based viability assays light output follows the ATP content of the culture.

In data set [5] the test system is MeWo cells. The experiment in a line: Cell morphology after treatment (Example 6). In kind it is cell-based. Particulars: 100 μM, 6 hours.
Data set [6] has as its system MeWo cells. The experiment in a line: Preliminary annexin V-FITC assay (Example 7). In kind it is cell-based. As to conditions: 6-hour treatment, preliminary screen. The protocol: (§3) MeWo (ATCC® HTB-65™) and WM115 (ATCC® CRL-1675) cells were purchased from ATCC (Manassas, Va.) and maintained in the following: for MeWo:DMEM supplemented with 10% FBS; for WM115: RPMI 1640 supplemented with 10% FBS (10% FBS, 1% stabilized antibiotic anti-mycotic solution).
(§4) During the first set of studies, both MeWo and WM115 cells were treated with test compounds at 10 doses starting from 100 μM with 3-fold dilution. Staurosporine was used as positive control. After 6-hour treatment, cell apoptosis was assessed using an annexin V assay. The test compounds evaluated were CV-8684, CV-8685, CV-8686, CV-8687, and CV-8688.
(§5) For cell seeding, cells were harvested and the cell number was determined using Countess® cell counter. Cells were then diluted with culture medium to the desired density. 40 μL of cell suspension per well was added to the required number of wells in a 384-well plate (Corning 3712—clear bottom plate). The final cell density was 6,000 cells/well. After plating, the plates were incubated at 37° C., and 5% CO2 overnight.
(§6) For preparation of compound source plate, each test compound was dissolved in DMSO to 10 mM stock. 3-fold serial dilution was performed using an EVO200™ liquid handler (TECAN) to generate ten concentrations of test compound. 0.1% DMSO was employed as vehicle (negative) control. The compound source plate was then spun at room temperature at 1,000 RPM for 1 minute and agitated using a plate shaker for 2 minutes.
(§7) For compound treatment, 40 nL of compound were transferred from the compound source plate to the 384-well culture plate using liquid handler Echo550 (LabCyte Inc.). After 6-hour incubation, the plates were removed from the incubator for detection.
(§8) For the preliminary annexin V assay, the plates were removed from the incubator and allowed to equilibrate at room temperature for 15 minutes. Culture media was then removed. 20 μL of pre-mixed annexin V-FITC and Hoechst33342 dye working solution were added to each well. The cells were then incubated at room temperature for 20 minutes. […] Afterward, the plate was read using an Acumen eX3 plate reader. The relative activity was calculated according to the following formula: Activity (%)=100%×(CountAnnexin V/CountTotal cell), and EC50 was calculated using GraphPad Prism (v. 5.01).

Data set [7] has as its system WM115 cells. Nature of the data set: Preliminary annexin V-FITC assay (Example 7). The format is cell-based. Particulars: 6-hour treatment, preliminary screen. The procedure:
as §3, §4, §5, §6, §7, §8

The nature of data set [8]: CellTiter-Glo cell viability assay (Example 9). The format is cell-based. As to conditions: human; after 24-hour treatment; read-out: inhibition of cell viability. The procedure: as §1, §2
The source holds these as a separate data set.

Data set [9] relates to WM115 cells. The experiment in a line: Cell morphology after treatment (Example 6). The format is cell-based. As to conditions: 100 μM, 6 hours.
A further data set relates to yeast model. As to conditions: cited from earlier work.

Where two headings read alike, the source gives them in different places.

The EC50 is the concentration needed to bring the measured effect to its halfway point. Read a high EC50 as lower potency in that assay. For the compound `c1ccc2c(C(c3c[nH]c4ccccc34)C3CC3)c[nH]c2c1` [AB11644], in the data set with MelanoDerm™ Skin Model [1], the “viability of the tissues, dose response” value is on record as “slightly lower viability”. In addition, the response in data set [2] (Table 2) was half-maximal at 14.9 µM (EC50).
As to `O=Cc1c(C(c2c[nH]c3ccccc23)C2CC2)[nH]c2ccccc12` (stereo not shown) [AB12508], in the data set with MelanoDerm™ Skin Model [3], the melanin concentration stood at 25.26 µg/mL. In addition, the EC50 in [2] (Table 1) is 15.4 µM; in [2] (Table 2), 14.2 µM.
Take `Cc1ccc2c(Cc3[nH]c4ccccc4c3C=O)c[nH]c2c1` [CV-8686]: the “viability of the tissues, dose response” value with MelanoDerm™ Skin Model [1] is recorded as “slightly lower viability”. In [2] (Table 1), the response was half-maximal at 3.17 µM (EC50).
On to `COC(=O)c1c(C(C)c2c[nH]c3ccccc23)[nH]c2ccccc12` (stereo not shown) [Compound B (CV-8877)], for which the melanin concentration in the data set on MelanoDerm™ Skin Model [3] stood at 25.99 µg/mL. The compound also gave an EC50 in [2] (Table 2) of 13.8 µM.
For the compound `CN[C@@H]1C[C@H]2O[C@@](C)([C@@H]1OC)n1c3ccccc3c3c4c(c5c6ccccc6n2c5c31)C(=O)NC4` [Staurosporine, reference compound], the cytotoxicity at 24 h in data set [4] and in data set [8] was 100% in each case. Moreover, the cell morphology entry in the data set on MeWo cells [5] and with WM115 cells [9] was “significantly affected” each time. Further, the “annexin V staining” value in the data set on MeWo cells [6] and in the data set on WM115 cells [7] was “greatly increased annexin V staining” in each case.
`O=C1OC(c2c[nH]c3ccccc23)=C(c2c[nH]c3ccccc23)C1=O` [pityrialactone, Pityrialactone]: the UV protective properties result in the data set on yeast model was “confirmed”.

These data come from US11220491B2, “Photoprotective compositions containing Malassezia-derived compounds and/or chemical analogs thereof” (Versicolor Technologies, LLC, priority 2018, dated 2022).
